Literature values as cited in patent US10894072B2, “Compositions and methods for treating fibromyalgia” (Quality IP Holdings, LLC, priority 2017, dated 2021).

Legend:
[1] = system: hGH; settings: for Increase in hGH: other amino acids
[2] = system: IGF-1 and IGF-BP3; settings: patients with fibromyalgia, 4 days treatment
[3] = system: fibromyalgia
[4] = subcutaneous injection of 0.06 IU, hGH deficient subjects
[5] = hGH-deficient adults, within months of treatment
[6] = system: fibromyalgia; remark: listed apart in the source
[7] = system: fibromyalgia; remark: listed apart in the source

## N=C(N)NCCC[C@H](N)C(=O)O [arginine]
[1]; 30 g, males
  Elevation of serum hGH levels: 8.6 fold
[1]; intravenous infusion of 183 mg/kg body weight, females
  Increase of hGH levels: > 20 fold

## N[C@@H](Cc1c[nH]cn1)C(=O)O [histidine]
[1]
  Increase in hGH: marked increases

## NCCCC[C@H](N)C(=O)O [lysine]
[1]
  Increase in hGH: marked increases

## CSCC[C@H](N)C(=O)O [methionine]
[1]
  Increase in hGH: marked increases

## NCCC[C@H](N)C(=O)O [ornithine]
[1]
  Increase in hGH: marked increases

## N[C@@H](Cc1ccccc1)C(=O)O [phenylalanine]
[1]
  Increase in hGH: marked increases

## hGH: human growth hormone, given by injection in cited studies
[2]
  Plasma IGF-1 and IGF-BP3 levels: increase
[3]; end of one-year study, subcutaneous hGH added to standard therapy
  Reduction in the mean number of tender points (pairs) compared to the control group: 60%
[3]; human, in vivo
  Tolerability: well tolerated
[4]
  Mean levels of hGH reached: 0.4 ng/mL
[5]
  Lean body mass, skin thickness and muscle mass: gains
[6]; hGH added to standard treatment, sustained action over time
  Pain: effective in reducing pain
[6]; low-dose hGH added to standard treatment
  FIQ scores compared with placebo group: significantly improved
[7]; at nine months
  FIQ score and tender point score over the placebo group: significant improvement
[7]; daily hGH injections
  IGF-1 levels: prompt and sustained increase
